What was measured:
smallflower flatsedge = test: Test B flood test smallflower flatsedge; assay type: in vivo, Cyperus difformis
Procedure, shortened: (§1)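 Plants were grown to the 2-leaf stage before treatment with test chemical, then held in a greenhouse for twelve to sixteen days. Injury was visually rated against untreated controls on a 0–10 scale, where 0 is no effect and 10 is complete control.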

rape = test: Test B pre/postemergence rape; assay type: in vivo, Brassica napus
Procedure, shortened: (§2)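 Response is a visual 0-to-10 score relative to untreated plants, where 0 means no effect and 10 means complete control, taken twelve to sixteen days after application. Treatments went onto soil at planting and onto foliage of 1- to 4-leaf plants, using a surfactant-containing non-phytotoxic solvent.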

giant foxtail = test: Test B pre/postemergence giant foxtail; assay type: in vivo, Setaria faberii
Procedure, shortened: as §2

soybean = test: Test B pre/postemergence soybean; assay type: in vivo, Glycine max
Procedure, shortened: as §2

rice = test: Test B flood test rice; assay type: in vivo, Oryza sativa
Procedure, shortened: as §1

purple nutsedge = test: Test B pre/postemergence purple nutsedge; assay type: in vivo, Cyperus rotundus
Procedure, shortened: as §2

bamyardgrass = test: Test B flood test barnyardgrass; assay type: in vivo, Echinochloa crus-galli
Procedure, shortened: as §1

blackgrass = test: Test B pre/postemergence blackgrass; assay type: in vivo, Alopecurus myosuroides
Procedure, shortened: as §2

wild oat = test: Test B pre/postemergence wild oat; assay type: in vivo, Avena fatua
Procedure, shortened: as §2

wheat = test: Test B pre/postemergence wheat; assay type: in vivo, Triticum aestivum
Procedure, shortened: as §2

bedstraw = test: Test B pre/postemergence bedstraw; assay type: in vivo, Galium aparine
Procedure, shortened: as §2

morningglory = test: Test B pre/postemergence morningglory; assay type: in vivo, Ipomoea hederacea
Procedure, shortened: as §2

duck salad = test: Test B flood test duck salad; assay type: in vivo, Heteranthera limosa
Procedure, shortened: as §1

pigweed = test: Test B pre/postemergence pigweed; assay type: in vivo, Amaranthus retroflexus
Procedure, shortened: as §2

sugar beet = test: Test B pre/postemergence sugar beet; assay type: in vivo, Beta vulgaris
Procedure, shortened: as §2

velvetleaf = test: Test B pre/postemergence velvetleaf; assay type: in vivo, Abutilon theophrasti
Procedure, shortened: as §2

[1] = Postemergence, Rate 62 g/ha, scale 0 to 10, 0 is no effect, 10 is complete control
[2] = Rate 125 g/ha, Postemergence section (flood test species), scale 0 to 10, 0 no effect, 10 complete control
[3] = Rate 250 g/ha, headed Pre-emergence (flood test species), scale 0 to 10 (0 no effect, 10 complete control)
[4] = Rate 500 g/ha, headed Pre-emergence (flood test species), scale 0 to 10 (0 no effect, 10 complete control)
[5] = Rate 500 g/ha, listed under Postemergence (flood test species), scale 0 to 10, 0 no effect, 10 complete control
[6] = Rate 2000 g/ha, Pre-emergence (as headed), scale 0 to 10
[7] = flood test, listed under Postemergence, Rate 250 g/ha, scale 0 to 10, 0 no effect, 10 complete control
[8] = Postemergence, Rate 250 g/ha, scale 0 to 10, 0 no effect, 10 complete control
[9] = Preemergence, Rate 62 g/ha, scale 0 to 10 (0 no effect, 10 complete control)
[10] = Preemergence, Rate 125 g/ha, scale 0 to 10 (0 no effect, 10 complete control)
[11] = Preemergence, Rate 250 g/ha, scale of 0 to 10 where 0 is no effect and 10 is complete control
[12] = Preemergence, Rate 500 g/ha, scale 0 (no effect) to 10 (complete control)
[13] = Rate 125 g/ha, Postemergence, scale 0 to 10, 0 no effect, 10 complete control
[14] = Rate 500 g/ha, Postemergence, scale 0 to 10, 0 no effect, 10 complete control
[15] = Rate 1000 g/ha, Pre-emergence (as headed), scale 0 to 10

CC(C)N(C(=O)n1oc(=O)n(Cc2ccccc2)c1=O)c1ccc(F)cc1 [Compound 78]
S. Flatsedge plant response rating (smallflower flatsedge; [1]): 0
S. Flatsedge plant response rating (smallflower flatsedge; Pre-emergence, Rate 1000 g/ha, scale 0 to 10 (0 no effect, 10 complete control)): 0
S. Flatsedge plant response rating (smallflower flatsedge; [2]): 0
S. Flatsedge plant response rating (smallflower flatsedge; [3]): 0
Plant response rating, S. Flatsedge (smallflower flatsedge; [4]): 0
S. Flatsedge plant response rating (smallflower flatsedge; [5]): 4
S. Flatsedge plant response rating (smallflower flatsedge; [6]): 7
S. Flatsedge plant response rating (smallflower flatsedge; [7]): 0
Rape plant response rating (rape; [1]): 0
Rape plant response rating (rape; [8]): 2
Rape plant response rating (rape; [9]): 0
Plant response rating, Rape (rape; [10]): 0
Plant response rating, Rape (rape; [11]): 5
Rape plant response rating (rape; [12]): 5
Rape plant response rating (rape; [13]): 0
Rape plant response rating (rape; [14]): 4
Giant foxtail plant response rating (giant foxtail; [1]): 0
Giant foxtail plant response rating (giant foxtail; [8]): 3
Giant foxtail plant response rating (giant foxtail; [9]): 8
Plant response rating, Giant foxtail (giant foxtail; [10]): 8
Plant response rating, Giant foxtail (giant foxtail; [11]): 9
Giant foxtail plant response rating (giant foxtail; [12]): 9
Giant foxtail plant response rating (giant foxtail; [13]): 3
Giant foxtail plant response rating (giant foxtail; [14]): 4
Soybean plant response rating (soybean; [1]): 1
Soybean plant response rating (soybean; [8]): 2
Soybean plant response rating (soybean; [9]): 0
Plant response rating, Soybean (soybean; [10]): 0
Plant response rating, Soybean (soybean; [11]): 0
Soybean plant response rating (soybean; [12]): 0
Soybean plant response rating (soybean; [13]): 1
Soybean plant response rating (soybean; [14]): 4
Rice plant response rating (rice; [1]): 0
Rice plant response rating (rice; [2]): 0
Rice plant response rating (rice; [3]): 0
Plant response rating, Rice (rice; [4]): 0
Rice plant response rating (rice; [5]): 2
Rice plant response rating (rice; [15]): 0
Rice plant response rating (rice; [6]): 0
Rice plant response rating (rice; [7]): 0
Nutsedge plant response rating (purple nutsedge; [1]): 0
Nutsedge plant response rating (purple nutsedge; [8]): 0
Nutsedge plant response rating (purple nutsedge; [9]): 0
Plant response rating, Nutsedge (purple nutsedge; [10]): 0
Plant response rating, Nutsedge (purple nutsedge; [11]): 0
Nutsedge plant response rating (purple nutsedge; [12]): 0
Nutsedge plant response rating (purple nutsedge; [13]): 0
Nutsedge plant response rating (purple nutsedge; [14]): 0
Barnyardgrass plant response rating (bamyardgrass; [1]): 0
Barnyardgrass plant response rating (bamyardgrass; [2]): 0
Barnyardgrass plant response rating (bamyardgrass; [3]): 0
Plant response rating, Barnyardgrass (bamyardgrass; [4]): 0
Barnyardgrass plant response rating (bamyardgrass; [5]): 7
Barnyardgrass plant response rating (bamyardgrass; [15]): 0
Barnyardgrass plant response rating (bamyardgrass; Rate 2000 g/ha, Pre-emergence (as headed), scale 0 to 10, 0 no effect, 10 complete control): 3
Barnyardgrass plant response rating (bamyardgrass; [7]): 3
Blackgrass plant response rating (blackgrass; [1]): 0
Blackgrass plant response rating (blackgrass; [8]): 3
Blackgrass plant response rating (blackgrass; [9]): 2
Plant response rating, Blackgrass (blackgrass; [10]): 4
Plant response rating, Blackgrass (blackgrass; [11]): 4
Blackgrass plant response rating (blackgrass; [12]): 6
Blackgrass plant response rating (blackgrass; [13]): 3
Blackgrass plant response rating (blackgrass; [14]): 7
Wild oats plant response rating (wild oat; [1]): 0
Wild oats plant response rating (wild oat; [8]): 0
Wild oats plant response rating (wild oat; [9]): 0
Plant response rating, Wild oats (wild oat; [10]): 2
Plant response rating, Wild oats (wild oat; [11]): 6
Wild oats plant response rating (wild oat; [12]): 6
Wild oats plant response rating (wild oat; [13]): 0
Wild oats plant response rating (wild oat; [14]): 2
Wheat plant response rating (wheat; [1]): 0
Wheat plant response rating (wheat; [8]): 0
Wheat plant response rating (wheat; [9]): 0
Plant response rating, Wheat (wheat; [10]): 0
Plant response rating, Wheat (wheat; [11]): 3
Wheat plant response rating (wheat; [12]): 3
Wheat plant response rating (wheat; [13]): 0
Wheat plant response rating (wheat; [14]): 0
Bedstraw plant response rating (bedstraw; [1]): 0
Bedstraw plant response rating (bedstraw; [8]): 4
Bedstraw plant response rating (bedstraw; [9]): 0
Plant response rating, Bedstraw (bedstraw; [10]): 0
Plant response rating, Bedstraw (bedstraw; [11]): 0
Bedstraw plant response rating (bedstraw; [12]): 0
Bedstraw plant response rating (bedstraw; [13]): 0
Bedstraw plant response rating (bedstraw; [14]): 8
Morningglory plant response rating (morningglory; [1]): 7
Morningglory plant response rating (morningglory; [8]): 10
Morningglory plant response rating (morningglory; [9]): 0
Plant response rating, Morningglory (morningglory; [10]): 0
Plant response rating, Morningglory (morningglory; [11]): 0
Morningglory plant response rating (morningglory; [12]): 0
Morningglory plant response rating (morningglory; [13]): 8
Morningglory plant response rating (morningglory; [14]): 10
Ducksalad plant response rating (duck salad; [1]): 0
Ducksalad plant response rating (duck salad; [2]): 0
Ducksalad plant response rating (duck salad; [3]): 0
Plant response rating, Ducksalad (duck salad; [4]): 0
Ducksalad plant response rating (duck salad; [5]): 0
Ducksalad plant response rating (duck salad; [15]): 0
Ducksalad plant response rating (duck salad; [6]): 0
Ducksalad plant response rating (duck salad; [7]): 0
Redroot pigweed plant response rating (pigweed; [1]): 2
Redroot pigweed plant response rating (pigweed; [8]): 3
Redroot pigweed plant response rating (pigweed; [9]): 0
Plant response rating, Redroot pigweed (pigweed; [10]): 0
Plant response rating, Redroot pigweed (pigweed; [11]): 6
Redroot pigweed plant response rating (pigweed; [12]): 6
Redroot pigweed plant response rating (pigweed; [13]): 3
Redroot pigweed plant response rating (pigweed; [14]): 6
Sugarbeets plant response rating (sugar beet; [1]): 2
Sugarbeets plant response rating (sugar beet; [8]): 4
Sugarbeets plant response rating (sugar beet; [9]): 0
Plant response rating, Sugarbeets (sugar beet; [10]): 0
Plant response rating, Sugarbeets (sugar beet; [11]): 5
Sugarbeets plant response rating (sugar beet; [12]): 5
Sugarbeets plant response rating (sugar beet; [13]): 4
Sugarbeets plant response rating (sugar beet; [14]): 7
Velvetleaf plant response rating (velvetleaf; [1]): 2
Velvetleaf plant response rating (velvetleaf; [8]): 3
Velvetleaf plant response rating (velvetleaf; [9]): 0
Plant response rating, Velvetleaf (velvetleaf; [10]): 0
Plant response rating, Velvetleaf (velvetleaf; [11]): 2
Velvetleaf plant response rating (velvetleaf; [12]): 7
Velvetleaf plant response rating (velvetleaf; [13]): 2
Velvetleaf plant response rating (velvetleaf; [14]): 4

— US6737383B1, “Herbicidal oxadiazolidines” (priority 1999, dated 2004)
